Test results taken from ChEMBL document CHEMBL1221253, “Fragment-based discovery and optimization of BACE1 inhibitors” (Bioorg Med Chem Lett, 2010).

Columns and labels:
[1] = target: T1, Beta-secretase 1 (Homo sapiens, UniProt P56817); test: Inhibition of BACE1 assessed as amyloid beta secretion by cell based assay
[2] = target: T1, Beta-secretase 1; test: Binding affinity to BACE1 at 2 mM by surface plasmon resonance assay
[3] = Genotoxicity in Salmonella Typhimurium by Ames test in presence of S9 liver microsomes; format: toxicity, Microsome; settings: salmonella enterica subsp. enterica serovar typhimurium
[4] = Half life in rat liver microsomes; format: ADME, Microsome
[5] = target: T2, Beta-secretase 2 (Homo sapiens, UniProt Q9Y5Z0); test: Inhibition of human BACE2
T2 sequence (Q9Y5Z0 whole entry): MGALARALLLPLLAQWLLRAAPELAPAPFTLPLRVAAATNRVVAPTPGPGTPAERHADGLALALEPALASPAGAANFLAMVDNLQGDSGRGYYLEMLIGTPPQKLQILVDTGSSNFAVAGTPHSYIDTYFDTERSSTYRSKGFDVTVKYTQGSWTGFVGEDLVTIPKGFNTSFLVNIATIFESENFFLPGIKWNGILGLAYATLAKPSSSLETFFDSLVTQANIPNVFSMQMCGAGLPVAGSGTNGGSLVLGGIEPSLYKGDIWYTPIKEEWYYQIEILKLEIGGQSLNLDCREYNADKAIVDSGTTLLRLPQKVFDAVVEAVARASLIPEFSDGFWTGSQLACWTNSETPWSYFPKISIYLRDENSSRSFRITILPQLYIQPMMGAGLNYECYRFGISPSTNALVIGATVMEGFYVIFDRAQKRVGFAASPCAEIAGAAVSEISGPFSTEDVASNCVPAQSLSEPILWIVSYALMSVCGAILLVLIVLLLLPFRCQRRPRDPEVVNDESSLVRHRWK

[6] = target: Cathepsin D (Homo sapiens, UniProt P07339); test: Inhibition of cathepsin D
Cathepsin D, sequence (P07339 65-162 limits assumed): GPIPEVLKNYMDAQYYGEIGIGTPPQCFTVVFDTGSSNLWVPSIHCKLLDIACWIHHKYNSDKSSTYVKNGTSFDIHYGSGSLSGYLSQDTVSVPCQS
Cathepsin D, sequence (P07339 169-412 limits assumed): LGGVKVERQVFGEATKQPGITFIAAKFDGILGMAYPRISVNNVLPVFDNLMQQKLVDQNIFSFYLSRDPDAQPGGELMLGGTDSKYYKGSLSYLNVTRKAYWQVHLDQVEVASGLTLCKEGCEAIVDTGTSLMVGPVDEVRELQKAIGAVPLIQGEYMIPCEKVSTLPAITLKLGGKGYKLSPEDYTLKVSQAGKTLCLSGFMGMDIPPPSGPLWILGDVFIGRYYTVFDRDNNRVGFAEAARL

[7] = target: Voltage-gated inwardly rectifying potassium channel KCNH2 (Homo sapiens, UniProt Q12809); test: Inhibition of human ERG
Voltage-gated inwardly rectifying potassium channel KCNH2, sequence (Q12809 whole entry): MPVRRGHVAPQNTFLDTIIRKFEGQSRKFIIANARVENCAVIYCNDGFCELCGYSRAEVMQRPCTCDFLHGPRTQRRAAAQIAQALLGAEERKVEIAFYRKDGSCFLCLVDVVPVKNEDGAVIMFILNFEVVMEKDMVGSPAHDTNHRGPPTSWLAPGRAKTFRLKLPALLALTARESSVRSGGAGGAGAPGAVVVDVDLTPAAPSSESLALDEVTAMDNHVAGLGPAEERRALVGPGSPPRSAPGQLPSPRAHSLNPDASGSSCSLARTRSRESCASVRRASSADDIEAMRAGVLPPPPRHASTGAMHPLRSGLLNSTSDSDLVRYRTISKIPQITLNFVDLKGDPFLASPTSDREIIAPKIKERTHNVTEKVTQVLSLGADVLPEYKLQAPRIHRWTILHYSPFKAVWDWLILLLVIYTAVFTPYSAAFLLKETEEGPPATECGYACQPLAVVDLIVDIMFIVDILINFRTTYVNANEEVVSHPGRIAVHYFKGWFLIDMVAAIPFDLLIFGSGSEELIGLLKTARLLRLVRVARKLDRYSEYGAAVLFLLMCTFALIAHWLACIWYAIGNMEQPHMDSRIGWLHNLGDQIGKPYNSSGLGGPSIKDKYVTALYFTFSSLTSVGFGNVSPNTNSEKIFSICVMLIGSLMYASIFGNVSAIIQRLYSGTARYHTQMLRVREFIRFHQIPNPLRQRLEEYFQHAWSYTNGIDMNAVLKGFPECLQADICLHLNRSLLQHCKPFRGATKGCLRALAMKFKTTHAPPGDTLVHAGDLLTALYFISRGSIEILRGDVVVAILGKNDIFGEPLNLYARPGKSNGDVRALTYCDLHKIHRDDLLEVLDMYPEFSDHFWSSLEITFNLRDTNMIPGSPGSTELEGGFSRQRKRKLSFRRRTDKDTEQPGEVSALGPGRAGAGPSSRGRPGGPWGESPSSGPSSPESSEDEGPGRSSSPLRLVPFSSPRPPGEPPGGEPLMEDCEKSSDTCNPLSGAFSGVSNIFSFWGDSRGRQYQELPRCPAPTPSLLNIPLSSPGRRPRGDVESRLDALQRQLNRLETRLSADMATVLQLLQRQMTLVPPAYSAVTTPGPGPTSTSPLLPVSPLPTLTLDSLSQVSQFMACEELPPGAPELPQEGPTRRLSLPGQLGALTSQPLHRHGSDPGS

[8] = Genotoxicity in Salmonella Typhimurium by Ames test; format: toxicity; settings: salmonella enterica subsp. enterica serovar typhimurium
[9] = Half life in human liver microsomes; format: ADME, Microsome
[10] = Maximum drug flux by PAMPA; format: ADME

T1 sequence (P56817 whole entry): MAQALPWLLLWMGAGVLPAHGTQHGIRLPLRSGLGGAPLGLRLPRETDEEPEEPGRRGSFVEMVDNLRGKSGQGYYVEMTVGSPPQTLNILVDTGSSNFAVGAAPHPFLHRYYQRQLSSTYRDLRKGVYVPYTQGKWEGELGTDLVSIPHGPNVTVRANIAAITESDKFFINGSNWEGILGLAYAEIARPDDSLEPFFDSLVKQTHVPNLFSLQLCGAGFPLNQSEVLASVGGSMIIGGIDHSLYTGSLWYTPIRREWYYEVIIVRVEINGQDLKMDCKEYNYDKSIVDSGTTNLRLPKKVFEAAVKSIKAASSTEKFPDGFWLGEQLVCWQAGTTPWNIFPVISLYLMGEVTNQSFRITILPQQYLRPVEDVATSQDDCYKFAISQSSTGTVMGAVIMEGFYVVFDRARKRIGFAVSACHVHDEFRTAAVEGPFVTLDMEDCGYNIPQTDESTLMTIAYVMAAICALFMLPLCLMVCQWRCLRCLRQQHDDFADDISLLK

IC50 [1] | SMILES | other results
235 µM | CC(C)C[C@@H](CC(=O)NCc1ccccn1)n1c(N)nc2cc(Cl)ccc21 | 
1400 µM | Nc1nc2cc(Cl)ccc2n1CCCC(=O)NCc1ccccc1 | 
193 µM | CC(C)NC(=O)CCCn1c(N)nc2cc(Cl)ccc21 | 
72 µM | CC[C@@H](CC(=O)NCc1ccccc1)n1c(N)nc2cc(Cl)ccc21 | 
731 µM | Nc1nc2ccc(Cl)cc2[nH]1 | inhibition [2]: 34%
862 µM | Clc1cccc(-c2cnc3ncccn23)c1 | inhibition [2]: 29%
770 µM | Nc1nc2cc(Cl)ccc2n1CCCO | inhibition [2]: 63%
95 µM | CC[C@@H](CC(=O)NCCC(C)(C)C)n1c(N)nc2cc(Cl)ccc21 | 
249 µM | Nc1nc2cc(Cl)ccc2n1CCCC(=O)NCc1cccc(F)c1 | 
1010 µM | c1cnc2ncc(-c3ccncc3)n2c1 | inhibition [2]: 20%
426 µM | Nc1nc2cc(Cl)ccc2n1CCCC(=O)NCc1ccccn1 | 
59 µM | CN(CC1CCCCC1)C(=O)CCCn1c(N)nc2cc(Cl)ccc21 | 
264 µM | CC[C@@H](CC(=O)NCc1ccc(F)cc1)n1c(N)nc2cc(Cl)ccc21 | 
440 µM | CC[C@@H](CC(=O)NCCN1CCOCC1)n1c(N)nc2cc(Cl)ccc21 | 
325 µM | CN1CCC(NC(=O)CCCn2c(N)nc3cc(Cl)ccc32)CC1 | 
270 µM | CC[C@@H](CC(=O)NCCC1CCNC1)n1c(N)nc2cc(Cl)ccc21 (stereo not given in full) | 
340 µM | CC[C@@H](CC(=O)NCc1cccc(F)c1)n1c(N)nc2cc(Cl)ccc21 | 
827 µM | Nc1nc2cc(Cl)ccc2n1CCCC(=O)NCCN1CCOCC1 | 
776 µM | O=C1c2ccccc2C(=O)C1(O)O | inhibition [2]: 27%

IC50 [1] | SMILES | other results
54 µM | CC(C)C[C@@H](CC(=O)NCc1cccc(F)c1)n1c(N)nc2cc(Cl)ccc21 | 
375 µM | CC[C@@H](CC(=O)N(C)CC1CCCCC1)n1c(N)nc2cc(Cl)ccc21 | 
246 µM | CC(C)C[C@@H](CC(=O)NC(C)C)n1c(N)nc2cc(Cl)ccc21 | 
87 µM | CC[C@@H](CC(=O)N[C@@H](COC(C)(C)C)C(=O)O)n1c(N)nc2cc(Cl)ccc21 | 
> 1000 µM | CC[C@@H](CC(=O)NCc1ccccn1)n1c(N)nc2cc(Cl)ccc21 | 
516 µM | CC[C@H](CC(=O)NCc1ccccc1)n1c(N)nc2cc(Cl)ccc21 | 
 | CC[C@@H](CC(=O)NCC1CCCCC1)n1c(N)nc2cc(Cl)ccc21 | Activity [3]: Non-toxic; half-life [4]: 6.7 min; IC50 [5]: 8 µM; IC50 [6]: 42 µM; IC50 [7]: 7.5 µM; Activity [8]: Non-toxic; half-life [9]: 5.5 min; Activity [10]: 12%
695 µM | CC[C@@H](CC(=O)NC(C)C)n1c(N)nc2cc(Cl)ccc21 | 
83 µM | Nc1nc2cc(Cl)ccc2n1CCCC(=O)NCC1CCCCC1 | 
243 µM | CC[C@@H](CC(=O)NCC1CC1)n1c(N)nc2cc(Cl)ccc21 | 
> 1000 µM | CC[C@@H](CC(=O)NCC1CCOCC1)n1c(N)nc2cc(Cl)ccc21 | 
928 µM | COn1c(-c2ccccc2)nc2ncccc21 | inhibition [2]: 36%
75 µM | CC[C@@H](CC(=O)N[C@H](COC(C)(C)C)C(=O)OC)n1c(N)nc2cc(Cl)ccc21 | 
> 1000 µM | CC(C)C[C@H](CC(=O)NC(C)C)n1c(N)nc2cc(Cl)ccc21 | 
444 µM | Nc1nc2cc(Cl)ccc2n1CCCC(=O)NCCC1CCNC1 (stereo not given) | 
194 µM | CN(Cc1cccc(F)c1)C(=O)CCCn1c(N)nc2cc(Cl)ccc21 | 
2850 µM | Nc1nc2cc(Cl)ccc2n1CCCC(=O)NCC1CC1 | 
168 µM | CC[C@@H](CC(=O)N[C@@H](COC(C)(C)C)C(=O)OC)n1c(N)nc2cc(Cl)ccc21 | 
